Source: patent US20250328351A1, “CARBONIC ANHYDRASE INHIBITORS AND ANTIBIOTICS AGAINST MULTIDRUG RESISTANT BACTERIA” (Purdue Research Foundation, priority 2018, published 2025)
Read-outs that look alike come from different tables or passages of the source.

What was measured:
Type in all cases: cell-based
[1] = test system: Mutant-6 of Enterococcus fecalis NR 31975; experiment: microbe, parasite or virus in culture
[2] = test system: Mutant-12 of Enterococcus fecalis NR 31975; experiment: microbe, parasite or virus in culture
[3] = test system: Mutant-2 of Enterococcus fecalis NR 31975; experiment: microbe, parasite or virus in culture
[4] = test system: Mutant-13 of Enterococcus fecalis NR 31975; experiment: microbe, parasite or virus in culture
[5] = test system: Enterococcus faecium Patient #3-1 NR-31912; experiment: MIC, broth microdilution (CLSI); details: Enterococcus faecium, TSB, read-out: MIC
Description: (§1) The minimum inhibitory concentrations (MICs) of the compounds and control drugs were determined using the broth microdilution method, according to guidelines outlined by the Clinical and Laboratory Standards Institute (CLSI). Enterococci strains were grown aerobically overnight on tryptone soya agar plates at 37° C., afterwards a bacterial solution equivalent to 0.5 McFarland standard was prepared and diluted in tryptone soy broth (TSB) to achieve a bacterial concentration of about 5×10^5 CFU/mL and seeded in 96-well well plates. Compounds and control drugs were added in the first row of the 96-well plates and serially diluted along the plates. Plates were then incubated aerobically at 37° C. for 18-20 hours. MICs reported in Table 1 are the minimum concentration of the compounds/control drugs that could inhibit completely the visual growth of the bacteria.

[6] = test system: Enterococcus fecalis Strain SF24413 NR31971; experiment: MIC, broth microdilution (CLSI); details: Enterococcus, TSB, read-out: MIC
Description: as §1

[7] = test system: Enterococcus fecalis Strain SF 28073 - NR31972; experiment: MIC, broth microdilution (CLSI); details: Enterococcus, TSB, read-out: MIC
Description: as §1

[8] = test system: Enterococcus fecalis Strain MMH594 - NR31975; experiment: microbe, parasite or virus in culture; details: Enterococcus, Table 4; Wild-type E. fecalis NR 31975
Description: as §1

[9] = test system: Mutant-7 of Enterococcus fecalis NR 31975; experiment: microbe, parasite or virus in culture
[10] = test system: Mutant-14 of Enterococcus fecalis NR 31975; experiment: microbe, parasite or virus in culture
[11] = test system: Enterococcus faecalis S613 HM-334; experiment: MIC, broth microdilution (CLSI); details: Enterococcus faecalis, read-out: MIC
[12] = test system: MRSA NRS 384 (MRSA USA300); experiment: MIC, broth microdilution (CLSI); details: Staphylococcus aureus; Table 2; TSB
Description: as §1, with “Institute (CLSI)^1. Staphylococci” for “Institute (CLSI). Enterococci”, “Table 2” for “Table 1”

[13] = test system: Staphylococcus epidermidis NRS 101; experiment: MIC, broth microdilution (CLSI); details: NRS101, Table 2, TSB
Description: as §1, with “Institute (CLSI)^1. Staphylococci” for “Institute (CLSI). Enterococci”, “Table 2” for “Table 1”

[14] = test system: Mutant-3 of Enterococcus fecalis NR 31975; experiment: microbe, parasite or virus in culture
[15] = test system: Mutant-4 of Enterococcus fecalis NR 31975; experiment: microbe, parasite or virus in culture
[16] = test system: Enterococcus faecium E417 - HM-965; experiment: MIC, broth microdilution (CLSI); details: Enterococcus faecium, E417HM965, Table 1; TSB; read-out: MIC
Description: as §1
(§2) The minimum inhibitory concentrations (MICs) of CAIs were tested against clinical isolates of vancomycin sensitive and vancomycin resistant Enterococci strains as per the guidelines provided by the Clinical and Laboratory Standards Institute (CLSI). The selected strains of Enterococci were streaked on Tryptic Soy Agar (TSA) plates and let grow for 24 hours at 37° C. Afterwards, a bacterial solution equivalent to 0.5 McFarland standard was prepared and diluted in tryptone soy broth (TSB) or brain heart infusion broth (BHIB) to achieve a bacterial concentration of about 5×10^5 CFU/mL and seeded in 96-well well plates. Compounds and control drugs were added in the first row of the 96-well plates and serially diluted along the plates. Plates were then incubated aerobically at 37° C. for 18-20 hours. MICs reported in Table 5 are the minimum concentration of the compounds/control drugs that could inhibit completely the visual growth of the bacteria.

[17] = test system: Enterococcus faecium Patient #2-1 - NR-31909; experiment: MIC, broth microdilution (CLSI); details: Enterococcus faecium, TSB, read-out: MIC
Description: as §1, §2

[18] = test system: Enterococcus fecalis Strain SF 24397 NR31970; experiment: MIC, broth microdilution (CLSI); details: Enterococcus, TSB, read-out: MIC
Description: as §1, §2

[19] = test system: Mutant-5 of Enterococcus fecalis NR 31975; experiment: microbe, parasite or virus in culture
[20] = test system: Mutant-11 of Enterococcus fecalis NR 31975; experiment: microbe, parasite or virus in culture
[21] = test system: Mutant-8 of Enterococcus fecalis NR 31975; experiment: microbe, parasite or virus in culture
[22] = test system: Mutant-9 of Enterococcus fecalis NR 31975; experiment: microbe, parasite or virus in culture

Measured: MIC

CC(C)=CC(=O)Nc1nnc(S(N)(=O)=O)s1 [CAI0016, 3-Methyl-N-(5-sulfamoyl-1,3,4-thiadiazol-2-yl)but-2-enamide]
0.25 µg/mL: [11]; S613HM334, Table 7, TSB | [16] | [17]; Table 7 | [18]; Table 7
16 µg/mL: [1]
> 64 µg/mL: [12] | [13]
8 µg/mL: [2] | [3] | [15]
1 µg/mL: [5]; Table 1 | [8]
4 µg/mL: [4] | [9] | [10] | [14] | [19] | [20] | [21] | [22]
> 256 µg/mL: [11]; S613HM334, Table 6, TSB in presence of 4% human serum albumin
0.5 µg/mL: [5]; Table 7 | [6]; Table 1 | [6]; Table 7 | [7]; Table 1 | [7]; Table 7 | [11]; S613HM334, Table 1, TSB | [17]; Table 1 | [18]; Table 1
